# Experimental data: PubChem BioAssay AID2060888 (Molecular Pharmacology Branch, DTP, NCI, 2025)
# Values joined by “and” are separate entries in the source; they are usually repeats but may differ in a detail not shown here. Equal values may be shown once.
# Tested on: 695427-040-R-J1-PDC complex spheroid viability
# Assay: Anticancer human tumor 695427-040-R-J1-PDC patient-derived colon adenocarcinoma cell line growth inhibition [RAS]
# Settings: for viability, T/C: stronger effect = lower value
# Outline: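 Agents were tested in combination matrices in half-log decrements from a top concentration at or near clinical Cmax (10 microM if undetermined). Targets were multi-cell spheroids of tumour lines plus HUVEC and MSC stromal cells.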
# [1] = curve of first compound, second compound 0.00316 µM
# [2] = curve of first compound, second compound 0.01 µM
# [3] = curve of first compound, second compound 0.0316 µM
# [4] = curve of first compound, second compound 0.1 µM
# [5] = curve of first compound, second compound 0.316 µM
# [6] = curve of first compound, second compound 1 µM
# [7] = second compound 0.00316 µM, first compound 0.0316 µM
# [8] = second compound 0.00316 µM, first compound 0.1 µM
# [9] = second compound 0.00316 µM, first compound 0.316 µM
# [10] = second compound 0.00316 µM, first compound 1 µM
# [11] = second compound 0.00316 µM, first compound 3.16 µM
# [12] = second compound 0.00316 µM, first compound 10 µM
# [13] = second compound 0.01 µM, first compound 0.0316 µM
# [14] = second compound 0.01 µM, first compound 0.1 µM
# [15] = second compound 0.01 µM, first compound 0.316 µM
# [16] = second compound 0.01 µM, first compound 1 µM
# [17] = second compound 0.01 µM, first compound 3.16 µM
# [18] = second compound 0.01 µM, first compound 10 µM
# [19] = second compound 0.0316 µM, first compound 0.0316 µM
# [20] = second compound 0.0316 µM, first compound 0.1 µM
# [21] = second compound 0.0316 µM, first compound 0.316 µM
# [22] = second compound 0.0316 µM, first compound 1 µM
# [23] = second compound 0.0316 µM, first compound 3.16 µM
# [24] = second compound 0.0316 µM, first compound 10 µM
# [25] = second compound 0.1 µM, first compound 0.0316 µM
# [26] = second compound 0.1 µM, first compound 0.1 µM
# [27] = second compound 0.1 µM, first compound 0.316 µM
# [28] = second compound 0.1 µM, first compound 1 µM
# [29] = second compound 0.1 µM, first compound 3.16 µM
# [30] = second compound 0.1 µM, first compound 10 µM
# [31] = second compound 0.316 µM, first compound 0.0316 µM
# [32] = second compound 0.316 µM, first compound 0.1 µM
# [33] = second compound 0.316 µM, first compound 0.316 µM
# [34] = second compound 0.316 µM, first compound 1 µM
# [35] = second compound 0.316 µM, first compound 3.16 µM
# [36] = second compound 0.316 µM, first compound 10 µM
# [37] = second compound 1 µM, first compound 0.0316 µM
# [38] = second compound 1 µM, first compound 0.1 µM
# [39] = second compound 1 µM, first compound 0.316 µM
# [40] = second compound 1 µM, first compound 1 µM
# [41] = second compound 1 µM, first compound 3.16 µM
# [42] = second compound 1 µM, first compound 10 µM
# 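Further: viability read after seven days of drug exposure.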
# 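Wherever viability, T/C is given: 100% = DMSO vehicle control viability.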
structure (smiles),measurement,setting,value
CCC(CC)c1cc(NC2CCC(N)C2)n2nccc2n1 (stereo unspecified),"viability, T/C",compound 0.0316 µM,104% [middle of 4 runs]
same,"viability, T/C",compound 0.1 µM,96.3% [middle of 4 runs]
same,"viability, T/C",compound 0.316 µM,106% (2×) and 127% and 91%
same,"viability, T/C",compound 1 µM,108% [middle of 4 runs]
same,"viability, T/C",compound 3.16 µM,15.6% [middle of 4 runs]
same,"viability, T/C",compound 10 µM,12.6% [middle of 4 runs]
same,IC50,curve of compound,2170 nM and 1960 nM and 1820 nM
CC(Nc1ccc2c(c1)OCCn1cc(N3C(=O)OCC3C(F)F)nc1-2)C(N)=O (stereo unspecified) + C=CC(=O)N1CCN(c2nc(OCC3CCCN3C)nc3c(F)c(-c4nc(N)cc(C)c4C(F)(F)F)c(Cl)cc23)C(C)C1,IC50,[1],1470 nM
same,IC50,[2],838 nM
same,IC50,[3],1580 nM
same,IC50,[4],2010 nM
same,IC50,[5],3130 nM
same,IC50,[6],2030 nM
same,"viability, T/C",[7],89.6%
same,"viability, T/C",[8],68.5%
same,"viability, T/C",[9],62.4%
same,"viability, T/C",[10],54.2%
same,"viability, T/C",[11],46.8%
same,"viability, T/C",[12],36.2%
same,"viability, T/C",[13],95.5%
same,"viability, T/C",[14],75.5%
same,"viability, T/C",[15],56.5%
same,"viability, T/C",[16],50.2%
same,"viability, T/C",[17],43.5%
same,"viability, T/C",[18],41.1%
same,"viability, T/C",[19],90.7%
same,"viability, T/C",[20],76.7%
same,"viability, T/C",[21],65.2%
same,"viability, T/C",[22],51.2%
same,"viability, T/C",[23],47%
same,"viability, T/C",[24],38.4%
same,"viability, T/C",[25],85.2%
same,"viability, T/C",[26],71%
same,"viability, T/C",[27],64.3%
same,"viability, T/C",[28],50.4%
same,"viability, T/C",[29],49.6%
same,"viability, T/C",[30],43.3%
same,"viability, T/C",[31],87.2%
same,"viability, T/C",[32],73.2%
same,"viability, T/C",[33],66.2%
same,"viability, T/C",[34],55.9%
same,"viability, T/C",[35],50.8%
same,"viability, T/C",[36],44.4%
same,"viability, T/C",[37],85.6%
same,"viability, T/C",[38],71%
same,"viability, T/C",[39],68%
same,"viability, T/C",[40],52%
same,"viability, T/C",[41],47.8%
same,"viability, T/C",[42],40.8%
CC(C)NCC(C(=O)N1CCN(c2ncnc3c2C(C)CC3O)CC1)c1ccc(Cl)cc1 (stereo unspecified) + C=CC(=O)N1CCN(c2nc(OCC3CCCN3C)nc3c(F)c(-c4nc(N)cc(C)c4C(F)(F)F)c(Cl)cc23)C(C)C1,IC50,[1],> 10000 nM
same,IC50,[2],> 10000 nM
same,IC50,[3],> 10000 nM
same,IC50,[4],> 10000 nM
same,IC50,[5],> 10000 nM
same,IC50,[6],> 10000 nM
same,"viability, T/C",[7],98%
same,"viability, T/C",[8],95.2%
same,"viability, T/C",[9],88.2%
same,"viability, T/C",[10],84.7%
same,"viability, T/C",[11],93.6%
same,"viability, T/C",[12],108%
same,"viability, T/C",[13],107%
same,"viability, T/C",[14],102%
same,"viability, T/C",[15],88.5%
same,"viability, T/C",[16],93.3%
same,"viability, T/C",[17],101%
same,"viability, T/C",[18],111%
same,"viability, T/C",[19],109%
same,"viability, T/C",[20],91.1%
same,"viability, T/C",[21],91.7%
same,"viability, T/C",[22],87.8%
same,"viability, T/C",[23],102%
same,"viability, T/C",[24],106%
same,"viability, T/C",[25],98.7%
same,"viability, T/C",[26],91.5%
same,"viability, T/C",[27],81.3%
same,"viability, T/C",[28],83.6%
same,"viability, T/C",[29],105%
same,"viability, T/C",[30],111%
same,"viability, T/C",[31],107%
same,"viability, T/C",[32],88.6%
same,"viability, T/C",[33],91.4%
same,"viability, T/C",[34],95.2%
same,"viability, T/C",[35],102%
same,"viability, T/C",[36],107%
same,"viability, T/C",[37],91.7%
same,"viability, T/C",[38],94.6%
same,"viability, T/C",[39],89%
same,"viability, T/C",[40],79.7%
same,"viability, T/C",[41],81.5%
same,"viability, T/C",[42],89.5%
